# PMC9611259, “Antimicrobial Peptides Active in In Vitro Models of Endodontic Bacterial Infections Modulate Inflammation in Human Cardiac Fibroblasts” (Pharmaceutics, 2022)
# Where two headings read alike, the source gives them in different places. Where a SMILES comes first, the peptide text is derived from it. Bridges are numbered along the chain shown (N, C = ends). Roman numbers before positions name the chains, in order. [ ]: non-standard residue; d: D form. βAla = NCCC(=O)O
# Legend:
# [1] = test system: E. faecalis; settings: standard-of-care antibiotics against E. faecalis; cited from earlier work
# Experimental: As reported in Table 2, biofilm inhibition was tested against two strains of E. faecalis, ATCC 51,299 and PE endodontic isolate, and two strains of E. coli, TG1 reference strain and LC711 clinical isolate (Table 2). The BPC of M33D was equal to the MIC against E. faecalis reference strain ATCC 51,299 and clinical isolate PE. The BPC of M33i/l was double and equal to the MIC in E. faecalis reference strain and clinical isolate, respectively. The MBIC of both peptides against E. faecalis reference strain and PE was 6 μM, i.e., from two to three times the MIC. The results are particularly promisi ...
# [2] = test system: P. aeruginosa ATCC 27853; format: cell-based, Pseudomonas aeruginosa
# Experimental: (§1) The bacteria reported in Table 1 were used for conventional susceptibility testing experiments. M33D and M33i/l MICs were determined in triplicate on reference and clinical strains using a microdilution assay, performed according to the guidelines of the Clinical and Laboratory Standards Institute. Briefly, strains were grown on Mueller–Hinton (MH) agar plates (Becton Dickinson, Franklin Lakes, NJ, USA) and a single colony for each strain was picked using a sterile cotton swab, streaked in sterile cation-supplemented MH, and measured with a densitometer (Densichek, bioMèrieux, Marcy l’Etoile, France) up to 0.15 optical density. Wells of a microtiter plate containing 50 μL serial-doubling dilutions of the peptides were inoculated with an equal volume of bacterial suspension. The final bacterial inoculum was 5 × 10^4 CFU/well in a volume of 100 μL. […] Assays were performed in triplicate, and the median MIC values were recorded.
# [3] = test system: P. aeruginosa AV 65; format: cell-based, Pseudomonas aeruginosa
# Experimental: as §1
# [4] = test system: K. pneumoniae 7086042; format: cell-based, Klebsiella pneumoniae
# Experimental: as §1
# [5] = test system: K. pneumoniae ATCC 13833; format: cell-based, Klebsiella pneumoniae
# Experimental: as §1
# [6] = test system: E. coli ATCC 25922; format: cell-based, Escherichia coli
# Experimental: as §1
# [7] = test system: E. coli LC711; format: cell-based, Escherichia coli
# Experimental: as §1
# [8] = test system: E. coli TG1; format: cell-based, Escherichia coli; settings: reference strain; CLSI microdilution, 5 × 10^4 CFU/well, 35° 18–20 h, median of triplicate
# Experimental: as §1
# [9] = test system: E. coli W03BG0025; format: cell-based, Escherichia coli
# Experimental: as §1
# [10] = test system: S. aureus 3851; format: cell-based, Staphylococcus aureus
# Experimental: as §1
# [11] = test system: S. aureus USA 300; format: cell-based, Staphylococcus aureus
# Experimental: as §1
# [12] = test system: E. faecalis ATCC 51299; format: cell-based, Enterococcus faecalis
# Experimental: as §1
# [13] = test system: E. faecalis PE; format: cell-based, Enterococcus faecalis
# Experimental: as §1
# [14] = test system: E. faecalis ATCC 51299; format: cell-based, Enterococcus faecalis; settings: 24 h preformed biofilm challenged with peptide 14 h at 37 °C, crystal violet OD595, triplicate wells
# Experimental: (§2) For MBIC, the bacterial suspension (200 μL) of E. faecalis PE, E. faecalis 51299, E. coli TG1, or E. coli LC711, obtained as above, was added to wells in triplicate, in a 96-well U-bottom plate and incubated at 37 °C for 24h. The supernatant was removed, and 200 μL M33D and M33i/l diluted in TSB was added to the wells in twofold serial dilutions of each peptide.
# (§3) Untreated bacteria were used as positive control. After 14 h of static incubation at 37 °C, wells were washed thrice with PBS and fixed with PFA 4% in PBS (200 μL) for 30 min at room temperature. Wells were then washed three times, and crystal violet (1% in water) was added and incubated for 30 min in the dark. Wells were again washed, and the color dissolved with ethanol/acetone 80:20. Color was read at 595 nm. The MBIC is the lowest concentration of an antibiotic that results in an OD595 nm difference of ≤10% of the mean of two control well readings.
# (§4) Biofilm inhibition activity was evaluated on the basis of two parameters: the biofilm prevention concentration (BPC) and the minimal biofilm inhibition concentration (MBIC). The BPC is the lowest concentration of peptide that results in 10% lower biofilm formation compared to untreated controls. The biofilm was measured after removing planktonic cells by washing the wells, previously incubated for 24 h with the bacteria and the peptide. MBIC is the lowest concentration of peptide that results in a 10% reduction in preformed biofilm compared to untreated controls. A 24 h biofilm was challenged with serial dilutions of the peptides for 14 h. Then after removal of planktonic cells, the residual biofilm was measured. Crystal violet absorbance at […] was used to measure biofilm in the case of both parameters.
# [15] = test system: E. faecalis PE; format: cell-based, Enterococcus faecalis; settings: 24 h preformed biofilm challenged with peptide 14 h at 37 °C, crystal violet OD595, triplicate wells
# Experimental: as §2, §3, §4
# [16] = test system: E. coli LC711; format: cell-based, Escherichia coli; settings: 24 h preformed biofilm challenged with peptide 14 h at 37 °C, crystal violet OD595, triplicate wells
# Experimental: as §2, §3, §4
# [17] = test system: E. coli TG1; format: cell-based, Escherichia coli; settings: 24 h preformed biofilm challenged with peptide 14 h at 37 °C, crystal violet OD595, triplicate wells
# Experimental: as §2, §3, §4
# [18] = test system: S. epidermidis 6154; format: cell-based
# Experimental: as §1
# [19] = test system: S. epidermidis ATCC 14990; format: cell-based
# Experimental: as §1
# [20] = in vitro; format: in vitro ADME; settings: human, serum
# Experimental: A pool of sera from healthy volunteers (n = 5) was diluted to 50% with RPMI 1640 medium. A 5 μg/mL solution of the peptides in 50% serum was incubated at 37 °C for different time intervals (2, 4, 24, 48, and 72 h). At the established time, trichloroacetic acid was added at a 7.5% concentration, and the sample was centrifuged at 12,000–13,000× g for 15 min. Part of the supernatant was used for the MALDI-TOF analysis (2 μL) and part (250 μL) for the HPLC analysis, after being diluted with 1% TFA (750 μL). Time-zero HPLC and MS-spectroscopy spectra were obtained immediately after mixing the peptide with 50% serum. The presence of the intact peptide was determined in HPLC by spotting and integrating the peptide peak at the correct retention time. The identity of the peptide peak was further also confirmed by MALDI mass spectrometry.
# [21] = Eukaryotic cell viability assay (MTT); format: cell-based, murine; settings: mouse
# Experimental: RAW 264.7 cells, 5 × 10^3 per well, were seeded in 96-well plates and incubated for 24 h at 37 °C in a 5% CO2 atmosphere. A 100 μL volume of peptides at different concentrations in fresh medium was then added to the wells and kept for 24 h. Then 20 μL MTT (5 mg/mL) was added to each well, and the plate was incubated at 37 °C for 3 h. Finally, 120 μL HCl 4 mM in isopropanol was added to each well to dissolve the formazan crystals. Optical density was measured with a microplate reader (Bio-Rad, Hercules, CA, USA) at 570 nm. Cell viability was calculated by comparing the values of treated with those of untreated cells. Curves and EC50 were calculated using GraphPad Prism 5.03 software.
# [22] = test system: E. faecalis Fi74B1; format: cell-based, Enterococcus faecalis
# Experimental: as §1
# [23] = test system: E. faecalis Fi74B4; format: cell-based, Enterococcus faecalis
# Experimental: as §1
# [24] = test system: C. albicans ATCC 90028; format: cell-based
# [25] = test system: C. glabrata ATCC 90030; format: cell-based
# [26] = test system: C. krusei ATCC 6268; format: cell-based
# [27] = test system: C. striatum ATCC; format: cell-based
# Experimental: as §1
# [28] = test system: Enterococcus faecalis and faecium; format: cell-based
# Experimental: as §1
# [29] = test system: S. pneumoniae ATCC 49619; format: cell-based
# Experimental: as §1
# [30] = test system: S. pyogenes CCUG2557; format: cell-based
# Experimental: as §1
# [31] = test system: Staphylococcus aureus and epidermidis; format: cell-based
# Experimental: as §1
# [32] = test system: Candida species; format: cell-based
compound,measurement,setting,value
CC1(C)S[C@@H]2[C@H](NC(=O)[C@H](N)c3ccccc3)C(=O)N2[C@H]1C(=O)O [ampicillin],MBIC as multiple of the MIC,[1],2048 times the MIC
CC(=O)NC[C@H]1CN(c2ccc(N3CCOCC3)c(F)c2)C(=O)O1 [linezolid],MBIC as multiple of the MIC,[1],1024 times the MIC
"CC(C)C[C@@H](NC(=O)[C@@H](CCCCN)NC(=O)[C@H](N)CCCCN)C(=O)N[C@H](CCCNC(=N)N)C(=O)N[C@@H](C(=O)N[C@H](CCCNC(=N)N)C(=O)N[C@H](CC(C)C)C(=O)N[C@H](CO)C(=O)N[C@H](C)C(=O)NCCCC[C@H](NC(=O)[C@@H](C)NC(=O)[C@@H](CO)NC(=O)[C@@H](CC(C)C)NC(=O)[C@@H](CCCNC(=N)N)NC(=O)[C@H](NC(=O)[C@@H](CCCNC(=N)N)NC(=O)[C@@H](CC(C)C)NC(=O)[C@@H](CCCCN)NC(=O)[C@H](N)CCCCN)C(C)C)C(=O)NCCCC[C@H](NC(=O)[C@H](CCCCNC(=O)[C@@H](C)NC(=O)[C@@H](CO)NC(=O)[C@@H](CC(C)C)NC(=O)[C@@H](CCCNC(=N)N)NC(=O)[C@H](NC(=O)[C@@H](CCCNC(=N)N)NC(=O)[C@@H](CC(C)C)NC(=O)[C@@H](CCCCN)NC(=O)[C@H](N)CCCCN)C(C)C)NC(=O)[C@@H](C)NC(=O)[C@@H](CO)NC(=O)[C@@H](CC(C)C)NC(=O)[C@@H](CCCNC(=N)N)NC(=O)[C@H](NC(=O)[C@@H](CCCNC(=N)N)NC(=O)[C@@H](CC(C)C)NC(=O)[C@@H](CCCCN)NC(=O)[C@H](N)CCCCN)C(C)C)C(=O)NCCC(=O)O)C(C)C [M33i/l] (I: H-[dK][dK][dL][dR][dV][dR][dL][dS][dA]KK[βAla]-OH / II: H-[dK][dK][dL][dR][dV][dR][dL][dS][dA]K / III: H-[dK][dK][dL][dR][dV][dR][dL][dS][dA] / IV: H-[dK][dK][dL][dR][dV][dR][dL][dS][dA]; amide I:10-IV:C, I:11-II:C, II:10-III:C)",MIC,[2],0.8 (4) μM
same,MIC,[3],1.5 (8) μM
same,MIC,[4],6 (32) μM
same,MIC,[5],3 (16) μM
same,MIC,[6],3 (16) μM
same,MIC,"[7]; ColR (colistin-resistant) clinical isolate, CLSI microdilution, 5 × 10^4 CFU/well, 35° 18–20 h, median of triplicate",0.3 (1.6) μM
same,MIC,[8],1.5 µM
same,MIC,[9],3 (16) μM
same,MIC,[10],0.8 (4) μM
same,MIC,[11],1.5 (8) μM
same,MIC,[12],1.5 (8) μM
same,MIC,[13],1.5 (8) μM
same,MBIC,[14],6 µM
same,MBIC,[15],6 µM
same,MBIC,[16],3 µM
same,MBIC,[17],3 µM
same,MIC,[18],0.8 (4) μM
same,MIC,[19],0.8 (4) μM
same,"remaining at 72 h, 5 μg/mL",[20],25%
same,EC50 at 24 h,[21],18 µM
CC[C@@H](C)[C@@H](NC(=O)[C@@H](CCCCN)NC(=O)[C@H](N)CCCCN)C(=O)N[C@H](CCCNC(=N)N)C(=O)N[C@@H](C(=O)N[C@H](CCCNC(=N)N)C(=O)N[C@H](CC(C)C)C(=O)N[C@H](CO)C(=O)N[C@H](C)C(=O)NCCCC[C@H](NC(=O)[C@@H](C)NC(=O)[C@@H](CO)NC(=O)[C@@H](CC(C)C)NC(=O)[C@@H](CCCNC(=N)N)NC(=O)[C@H](NC(=O)[C@@H](CCCNC(=N)N)NC(=O)[C@H](NC(=O)[C@@H](CCCCN)NC(=O)[C@H](N)CCCCN)[C@H](C)CC)C(C)C)C(=O)NCCCC[C@H](NC(=O)[C@H](CCCCNC(=O)[C@@H](C)NC(=O)[C@@H](CO)NC(=O)[C@@H](CC(C)C)NC(=O)[C@@H](CCCNC(=N)N)NC(=O)[C@H](NC(=O)[C@@H](CCCNC(=N)N)NC(=O)[C@H](NC(=O)[C@@H](CCCCN)NC(=O)[C@H](N)CCCCN)[C@H](C)CC)C(C)C)NC(=O)[C@@H](C)NC(=O)[C@@H](CO)NC(=O)[C@@H](CC(C)C)NC(=O)[C@@H](CCCNC(=N)N)NC(=O)[C@H](NC(=O)[C@@H](CCCNC(=N)N)NC(=O)[C@H](NC(=O)[C@@H](CCCCN)NC(=O)[C@H](N)CCCCN)[C@H](C)CC)C(C)C)C(=O)NCCC(=O)O)C(C)C [M33D],MIC,[7]; LC711,1.5 µM
same,MIC,[8],1.5 µM
same,MIC,[12],3 (16) μM
same,MIC,[22],0.8 (4) μM
same,MIC,[23],1.5 (8) μM
same,MIC,[13],1.5 (8) μM
same,MIC,[24],5 (24) μM
same,MIC,[25],12 (64) μM
same,MIC,[26],6 (32) μM
same,MBIC,[14],6 µM
same,MBIC,[15],6 µM
same,MBIC,[16],3 µM
same,MBIC,[17],3 µM
same,MIC,[27],1.5 µM
same,MIC range against Enterococcus faecalis and faecium,[28],0.8 to 3 µM
same,MIC,[29],6 (32) μM
same,MIC,[30],6 (32) μM
same,MIC range against Staphylococcus aureus and epidermidis,[31],0.4 to 1.5 µM
same,MIC range against Candida species,[32],5 to 12 µM
same,"remaining at 72 h, 5 μg/mL",[20],31%
same,EC50 at 24 h,"[21]; 24 h incubation at 37 °C, MTT, n = 3, read-out: EC50 cytotoxicity",30 µM
